Laboratory results taken from patent US10376499B2, “Combination therapy for treatment of resistant bacterial infections” (priority 2014, dated 2019).
Counter-ions that a name gives are not always drawn. Like-named read-outs stand apart in the source and are kept apart here.

Legend:
[1] = system: A. baumannii; test: Neutropenic mouse thigh and lung infection models; details: neutropenic CD-1 mice, subcutaneous q3h, sulbactam+compound 1 at 4:1 ratio, 24 h, isolate containing AmpC, OXA-66, OXA-72, TEM-1, FIG. 4
[2] = system: Klebsiella pneumoniae; test: MIC, recent Enterobacteriaceae clinical isolates: Klebsiella pneumoniae (Examples 7, 11)
[3] = system: Citrobacter spp; test: MIC, recent Enterobacteriaceae clinical isolates: Citrobacter spp (Examples 7, 11); assay type: cell-based; details: for MIC: read-out: MIC
[4] = system: Enterobacteriaceae; test: organism not typed; assay type: cell-based
[5] = system: Enterobacter cloacae; test: MIC, recent Enterobacteriaceae clinical isolates: Enterobacter cloacae (Examples 7, 11); assay type: cell-based
[6] = system: A. baumannii; test: MIC, 20 diverse recent strains of A. baumannii (Example 10); assay type: cell-based, Acinetobacter baumannii; details: N 20 A. baumannii strains
[7] = system: Escherichia coli; test: MIC, recent Enterobacteriaceae clinical isolates: Escherichia coli (Examples 7, 11); details: Escherichia coli

CC1=C[C@@H]2CN(C(=O)N2OS(=O)(=O)O)[C@@H]1C(N)=O [Compound 1, (2S,5R)-2-carbamoyl-3-methyl-7-oxo-1,6-diazabicyclo[3.2.1]oct-3-en-6-yl hydrogen sulfate]
efficacy (mean delta log CFU) [1]: recover the activity
MIC50 [2]: 1 µg/mL
MIC90 [2]: 4 µg/mL
MIC ([2]; Klebsiella pneumoniae ARC4414, SHV-11): 2 µg/mL
MIC ([2]; Klebsiella pneumoniae ARC4420, SHV-11, SHV-12, DHA-1, OXA-1): 1 µg/mL
MIC ([2]; Klebsiella pneumoniae ARC4427, SHV-1, OXA-1): 0.25 µg/mL
MIC ([2]; Klebsiella pneumoniae ARC4434, SHV-11): 2 µg/mL
MIC ([2]; Klebsiella pneumoniae ARC4435, SHV-157): 0.25 µg/mL
MIC ([2]; Klebsiella pneumoniae ARC4446, SHV-11): 2 µg/mL
MIC ([2]; Klebsiella pneumoniae ARC4451, SHV-11, KPC-3): 0.5 µg/mL
MIC ([2]; Klebsiella pneumoniae ARC4457, SHV-11, DHA-1): 0.5 µg/mL
MIC ([2]; Klebsiella pneumoniae ARC4460, SHV-11, CTX-M15, OXA-1, NDM-1): 4 µg/mL
MIC ([2]; Klebsiella pneumoniae ARC4467, SHV-33, TEM-1, OXA-1, DHA-1): 4 µg/mL
MIC ([2]; Klebsiella pneumoniae ARC4468, SHV-1): 8 µg/mL
MIC ([2]; Klebsiella pneumoniae ARC4476, SHV-11, KPC-2, OXA-9[W117*]): 4 µg/mL
MIC ([2]; Klebsiella pneumoniae ARC4480, SHV-27): 0.5 µg/mL
MIC ([2]; Klebsiella pneumoniae ARC4483, SHV-11): 1 µg/mL
MIC ([2]; Klebsiella pneumoniae ARC4484, SHV-168): 1 µg/mL
MIC ([2]; Klebsiella pneumoniae ARC4488, SHV-11, CTX-M15, OXA-1, TEM-1): 0.25 µg/mL
MIC ([2]; Klebsiella pneumoniae ARC4490, SHV-11, CTX-M15, KPC-2, OXA-1): 0.5 µg/mL
MIC ([2]; Klebsiella pneumoniae ARC4495, SHV-60, LAP-2): 4 µg/mL
MIC ([3]; Citrobacter braakii ARC3660, CTX-M-15): 0.25 µg/mL
MIC ([3]; Citrobacter freundii ARC3522, AmpC, TEM-1, CMY65): 0.5 µg/mL
MIC ([3]; Citrobacter freundii ARC3883, KPC-2): 32 µg/mL
MIC ([3]; Citrobacter freundii ARC3884, KPC-2): 4 µg/mL
MIC ([3]; Citrobacter freundii ARC3885, AmpH, TEM-1, SHV-5, CMY-6, CMY-13): 4 µg/mL
MIC ([3]; Citrobacter koseri ARC2001, ESBL): 0.5 µg/mL
MIC ([3]; Citrobacter koseri ARC2002, ESBL): 0.5 µg/mL
MIC range ([3]; Citrobacter spp, N 7): 0.25 to 4 µg/mL
MIC50 ([3]; Citrobacter spp, N 7, read-out: MIC50): 0.5 µg/mL
MIC90 ([3]; Citrobacter spp, N 7, read-out: MIC90): 4 µg/mL
MIC50 [4]: 0.5 µg/mL
MIC90 [4]: 4 µg/mL
MIC range ([4]; Total Enterobacteriaceae, N 59): 0.125 to 32 µg/mL
MIC ([5]; Enterobacter cloacae ARC4438, AmpC+, read-out: MIC): 2 µg/mL
MIC ([5]; Enterobacter cloacae ARC4439, AmpC+, LAP-2+, read-out: MIC): 0.5 µg/mL
MIC ([5]; Enterobacter cloacae ARC4444, AmpC+, MIR-8[I175L]): 4 µg/mL
MIC ([5]; Enterobacter cloacae ARC4458, AmpC+, ACT-2[V312M]): 8 µg/mL
MIC ([5]; Enterobacter cloacae ARC4461, AmpC+, TEM-1, read-out: MIC): 0.25 µg/mL
MIC ([5]; Enterobacter cloacae ARC4462, AmpC+, read-out: MIC): 0.5 µg/mL
MIC ([5]; Enterobacter cloacae ARC4473, SHV-5+, AmpC+, DHA-1+, TEM-1+, read-out: MIC): 0.5 µg/mL
MIC ([5]; Enterobacter cloacae ARC4489, AmpC+, read-out: MIC): 1 µg/mL
MIC ([5]; Enterobacter cloacae ARC4492, AmpC+, read-out: MIC): 0.5 µg/mL
MIC ([5]; Enterobacter cloacae ARC4494, OXA-1+, DHA-1+, AmpC+, read-out: MIC): 0.25 µg/mL
MIC90 ([5]; N 10): 4 µg/mL
MIC range ([5]; N 10): 0.25 to 8 µg/mL
MIC50 ([5]; N 10, read-out: MIC50): 0.5 µg/mL
MIC50 [6]: 64 µg/mL
MIC90 [6]: > 64 µg/mL
MIC Max [6]: > 64 µg/mL
MIC Min [6]: 16 µg/mL
MIC [7]: 0.125 µg/mL
MIC50 [7]: 0.5 µg/mL
MIC90 [7]: 4 µg/mL
MIC ([7]; ATCC25922, Escherichia coli ARC4, none (ATCC 25922) CLSI control): 8 µg/mL
MIC ([7]; Escherichia coli ARC4416, CTX-M-14+, TEM-1+): 0.5 µg/mL
MIC ([7]; Escherichia coli ARC4418, CTX-M-14+, CMY-2+): 0.25 µg/mL
MIC ([7]; Escherichia coli ARC4419, SHV-12+): 0.25 µg/mL
MIC ([7]; Escherichia coli ARC4421, CTX-M-55, TEM-1+, CMY-2+): 0.25 µg/mL
MIC ([7]; Escherichia coli ARC4429, TEM-1+, CMY-2+): 0.25 µg/mL
MIC ([7]; Escherichia coli ARC4432, CTX-M-14+, TEM-1+, CMY-2+): 0.25 µg/mL
MIC ([7]; Escherichia coli ARC4436, CTX-M-14+, TEM-1+): 0.25 µg/mL
MIC ([7]; Escherichia coli ARC4449, CMY-2+, TEM-1+): 0.5 µg/mL
MIC ([7]; Escherichia coli ARC4450, TEM-1+, OXA-1+, CMY-2+): 2 µg/mL
MIC ([7]; Escherichia coli ARC4452, SHV-12+): 0.25 µg/mL
MIC ([7]; Escherichia coli ARC4455, SHV-12+): 0.25 µg/mL
MIC ([7]; Escherichia coli ARC4465, CMY-2+): 0.25 µg/mL
MIC ([7]; Escherichia coli ARC4471, CMY-2+, OXA-1+, TEM-1+): 4 µg/mL
MIC ([7]; Escherichia coli ARC4472, CMY-2+, TEM-1+): 2 µg/mL
MIC ([7]; Escherichia coli ARC4477, CTX-M-15+, TEM-1+): 2 µg/mL
MIC ([7]; Escherichia coli ARC4478, CTX-M-15+, CMY-2+): 0.5 µg/mL
MIC ([7]; Escherichia coli ARC4479, CMY-42+, OXA-1+, OXA-9+, TEM-1+): 32 µg/mL
MIC ([7]; Escherichia coli ARC4485, CMY-2+, OXA-1+, CTX-M-15+): 0.5 µg/mL
MIC ([7]; Escherichia coli ARC4487, SHV-5+, DHA-1+, TEM-1+, OXA-1+, CMY-2+): 4 µg/mL
